According to PMC10515483, “Structure–Reactivity Studies of 2-Sulfonylpyrimidines Allow Selective Protein Arylation” (Bioconjugate Chemistry, 2023):
Entries after “also recorded” stand apart in the source; their conditions may differ.

Columns and labels:
[1] = GSH arylation rate constants (NMR; UV-vis for fast warheads); type: physicochemical; conditions: for k: Table S8, rate constants obtained at pH = 7; for k/kref / ΔΔG≠1exp: relative to 4q; for ΔΔG≠1exp: via -RTln(k/kref)
Source text: We employed nuclear magnetic resonance (NMR) and UV–vis to quantify the reactivity of our 2-SP derivatives and other representative electrophiles (Figure 2) against cysteine. NMR allowed straightforward determination of reaction rate constants through dual monitoring of the consumption of the warhead and formation of the product by integration of their respective NMR signals (Figures S1–S3). It simultaneously provided a direct readout on reaction specificity and hydrolytic stability of the warhead. All measurements were carried out in KPi buffer in the presence of 5% d^6-dmso, which is generally well-tolerated by a wide range of proteins in in vitro studies. N-acetylcysteine methylester (NACME) and L-glutathione (GSH) are useful model cysteine nucleophiles for in vitro studies of electrophilic agents.[32] Mixing reference electrophile 2-methylsulfonylpyrimidine (4q) with NACME or GSH in a 1:10 ratio (pseudo-first-order conditions) allowed extraction of accurate and reproducible second order rate constants (k).
Figure 3 In vitro determination of electrophilic reactivity of compounds. (A) NMR assay setup for warhead/GSH reaction rate constant determination and chemoselectivity monitoring, over a 6 h time scale. Purple bead = GSH. Hydrolytic stability was determined in the same way over 36 h. d^4-Trimethylsilylpropanoate (TMSP, blue box) was used as an internal standard for monitoring the warhead solubility. Second-order reaction rate constants (k) were obtained from their pseudo-first-order counterparts (k′), by time-dependent normalized integration of the disappearing warhead signals. […] (B) Experimental second-order rate constants (y axis, log10 scale) for the reaction of representative 2-SP derivatives (left, 11 out of ca. 40 examples) and previously reported heteroarylsulfones (right) with GSH in a KPi buffer, pH 7.0, 20 °C. All rate constants were calculated as an average of at least two independent measurements. Numerical values and standard deviations at both pH 7.0 and 6.5, along with a full list of 2-SPs and other electrophile types tested, are presented in Tables S2–S6 and Figure S4. The horizontal dashed line marks the reaction rate of 2-methylsulfonylpyrimidine at pH 7.0, as a reference when comparing with other reagents (see main text).
To establish an accurate structure–reactivity profile of 2-SP reagents, we systematically determined their reaction rate constants for the arylation of GSH by NMR, at pH 7.0 and 6.5. This was a prerequisite to (i) quantify the influence of substitution on reaction rates; (ii) accurately assess the tunability and chemoselectivity of 2-SPs for cysteine arylation; (iii) determine the influence of pH on the reaction rates to further inform on the precise reaction mechanism; and (iv) benchmark the overall performance of 2-SPs with those of previously reported fast reacting heteroarylsulfones and other common cysteine reactive warheads (Figure 2C,D).

[2] = Hydrolytic stability in KPi buffer without thiol (NMR); type: physicochemical; conditions: for % degradation: over 12 hours, 50 mM KPi, footnote a: crashing out of solution, no degradation product; for hydrolysis in aqueous buffer (in words): buffer in the absence of GSH
Method: NMR studies: rate constant determination and hydrolytic stability. 850 µL of 50 mM Kpi buffer solution (pH 8.2 or 7), 20 µL of the appropriate pyrimidine stock s olution (100 mM in DMSO -d6), 20 µL of TMSP stock solution (22.2 mM in DI water), 30 µL DMSO -d6, and 80 µL of GSH stock solution (0.25 M in DI water, reactivity only) were successively added/mixed at room temperature, final pH 7.0 or 6.5 (Table S1). 600 µL of this freshly prepared solution was poured into an NMR tube and immediately […]
transferred to the NMR instrument for acquisition. 1H spectra (16 scans) were recorded every 10 minutes under water suppression conditions. Following acquisition, spectra were analysed using […]
order reaction rate constants (k’).

[3] = pH 6.5, by NMR, KPi buffer, 5% DMSO-d6
[4] = pH 7.0, by NMR, KPi buffer, 5% DMSO-d6
[5] = pH 7.0, ratio to rate constant of 4q, acceleration (+) or deceleration (-)
[6] = pH 6.5, measured by UV titrations
[7] = pH 7.0, measured by UV titrations
[8] = pH 7.0, ratio to 4q, from value measured by UV titrations (footnote a)

| SMILES | k [1] [M⁻¹ s⁻¹] | rate constant (k) for the reaction with GSH [1, 3] | rate constant (k) for the reaction with GSH [1, 4] [M⁻¹ s⁻¹] | k change (vs ref) [1, 5] | k/kref [1] | ΔΔG≠1exp [1] [kJ/mol] | melting point [°C] | % degradation ([2]; pH 7.0) [%] | % degradation ([2]; pH 8.2) [%] | rate constant (k) for the reaction with GSH [1, 6] [M⁻¹ s⁻¹] | rate constant (k) for the reaction with GSH [1, 7] [M⁻¹ s⁻¹] | k change (vs ref) [1, 8] | second order rate constant k with GSH ([1]; pH 7.0, KPi buffer) | hydrolysis in aqueous buffer (in words) [2] | times faster at pH 7.0 vs 6.5 ([1]; GSH) | times slower with GSH than with NACME ([1]; pH 7.0) |
| --- | --- | --- | --- | --- | --- | --- | --- | --- | --- | --- | --- | --- | --- | --- | --- | --- |
| Nc1ccc(S(=O)(=O)c2ncccn2)cc1 [5b] | 0.0050 | 0.002 M⁻¹ s⁻¹ | 0.005 | -5 fold | 0.20 | 4.0 | 200 to 201 | – | – | – | – | – | – | – | – | – |
| CS(=O)(=O)c1nccc(C(=O)O)n1 [4d] | 0.0050 | 0.0015 M⁻¹ s⁻¹ | 0.005 | -5 fold | 0.20 | 4.0 | 115 to 118 | < 5 | < 5 | – | – | – | – | – | – | – |
| O=S(=O)(c1ccccc1)c1ncccn1 [5d] | 0.035 | 0.01 ± 0.005 M⁻¹ s⁻¹ | 0.035 ± 0.015 | ≈ | 1.4 | -0.83 | – | 12 | 10 | – | – | – | – | – | – | – |
| CC(C)(C)S(=O)(=O)c1ncccn1 [5a] | – | Ca. 0.03 mM-1.s-1 | 0.00018 ± 3e-05 | -139 fold | 0.0072 | 12 | 58 | < 5 | – | – | – | – | – | – | – | – |
| COC(=O)c1ccnc(S(C)(=O)=O)n1 [4k] | 2.8 | 0.26 ± 0.045 M⁻¹ s⁻¹ | – | – | 112 | -12 | 80 | 77 | 100 | 0.37 ± 0.063 | 2.8 ± 1.1 | +112 fold | – | – | – | – |
| Cc1ccnc(S(C)(=O)=O)n1 [4c] | 0.0043 | 0.0015 ± 0.0005 M⁻¹ s⁻¹ | 0.0043 ± 0.0008 | -6 fold | 0.17 | 4.4 | – | – | 10 | – | – | – | – | – | – | – |
| COc1cc(OC)nc(S(C)(=O)=O)n1 [4f, 4,6-dimethoxy-2-methylsulfonylpyrimidine] | 0.010 | 0.003 ± 0.0005 M⁻¹ s⁻¹ | 0.01 | -3 fold | 0.40 | 2.3 | – | – | – | – | – | – | – | – | – | – |
| COc1ccnc(S(C)(=O)=O)n1 [4b] | 0.0045 | 0.0013 ± 0.0008 M⁻¹ s⁻¹ | 0.0045 ± 0.0005 | -6 fold | 0.18 | 4.3 | 60 | – | – | – | – | – | – | – | – | – |
| O=S(=O)(NCc1ccccc1)c1ncccn1 [5g] | – | 0.00015 ± 5e-05 M⁻¹ s⁻¹ | 0.0004 ± 0.0001 | -63 fold | – | – | – | – | < 5 | – | – | – | – | – | – | – |
| CS(=O)(=O)c1nccc(C(F)(F)F)n1 [4l] | 21 | – | – | – | 840 | -17 | 82 | 17 | 65 | 4.9 ± 0.48 | 21 ± 0.6 | +840 fold | ≈ 21 M^–1 s^–1 | partial, slow hydrolysis | – | – |
| CS(=O)(=O)c1nccc(-c2ccccc2)n1 [4e] | – | 0.002 ± 0.0005 M⁻¹ s⁻¹ | 0.005 | -5 fold | – | – | – | < 5 | 50 | – | – | – | – | – | – | – |
| CCCCS(=O)(=O)c1ncccn1 [5c] | – | 0.0028 ± 0.0003 M⁻¹ s⁻¹ | 0.01 | -3 fold | – | – | – | – | – | – | – | – | – | – | – | – |
| CS(=O)(=O)c1ncccn1 [4q, 2-methylsulfonylpyrimidine] | 0.0250 | 0.004 ± 0.0016 M⁻¹ s⁻¹ | 0.025 ± 0.014 | – | 1 | 0.00 | – | < 5 | < 5 | – | – | – | ≈ 1.6 × 10^–2 M^–1 s^–1; also recorded: ≈ 1.2 × 10^–2 M^–1 s^–1 | – | approximately 5 times | approximately 3 times |
| CS(=O)(=O)c1ncc(C(F)(F)F)cn1 [4x] | 1900 | – | – | +76,000 fold | 76000 | -28 | – | 97 | 100 | – | – | – | – | partial, slow hydrolysis | – | – |
| CS(=O)(=O)c1nccc(C(N)=O)n1 [4j] | – | 0.095 ± 0.015 M⁻¹ s⁻¹ | 0.3 ± 0.0025 | +12 fold | – | – | – | – | – | – | – | – | – | – | – | – |
| CS(=O)(=O)c1ncc(-c2ccccc2)cn1 [4p] | – | 0.01 ± 0.005 M⁻¹ s⁻¹ | 0.012 ± 0.0078 | -2 fold | – | – | 180 | 78 | 78 | – | – | – | – | – | – | – |
| CS(=O)(=O)c1ncc(Br)c(C(=O)O)n1 [4i] | – | 0.075 ± 0.035 M⁻¹ s⁻¹ | 0.3 ± 0.013 | +12 fold | – | – | – | – | – | 0.15 ± 0.09 | 0.64 ± 0.009 | +26 fold | – | – | – | – |
| CS(=O)(=O)c1nccc(N)n1 [4g] | 0.023 | 0.032 ± 0.006 M⁻¹ s⁻¹ | 0.023 ± 0.003 | ≈ | 0.92 | 0.21 | 166 | 5 | – | – | – | – | – | – | – | – |
| O=S(=O)(Oc1c(F)c(F)c(F)c(F)c1F)c1ncccn1 [5h] | 24 | – | – | +960 fold | 960 | -17 | – | 100 | 100 | 5.4 ± 0.72 | 24 ± 1.1 | – | – | – | – | – |
| O=[N+]([O-])c1ccc(S(=O)(=O)c2ncccn2)cc1 [5f] | 0.29 | – | – | +12 fold | 12 | -6.1 | 225 | 100 | 100 | 0.2 ± 0.09 | 0.29 ± 0.17 | – | – | – | – | – |
| O=S(=O)(CC(F)(F)F)c1ncccn1 [5e] | 0.23 | 0.04 ± 0.005 M⁻¹ s⁻¹ | 0.23 ± 0.05 | +9 fold | 9.2 | -5.4 | 91 to 92 | 100 | 100 | – | – | – | – | – | – | – |
| CS(=O)(=O)c1ncc(C(=O)O)cn1 [4v] | 30 | – | – | +1,200 fold | 1200 | -18 | 138 | 18 | – | 6.7 ± 3.1 | 30 ± 3.2 | – | – | – | – | – |
